Consider one molecule from patent publication US7521461B2, “Benzoic acid derivatives as modulators of PPAR alpha and gamma” (AstraZeneca AB, priority 2002, dated 2009).

For one assay, the target named is T1, human PPAR alpha (Homo sapiens, UniProt Q07869).
T1 construct: expressed in transfected cells; host or cells: U2-OS (human osteogenic sarcoma), transient transfection by electroporation with a pSG5-based expression vector
T1 sequence (Q07869 239-466 limits assumed): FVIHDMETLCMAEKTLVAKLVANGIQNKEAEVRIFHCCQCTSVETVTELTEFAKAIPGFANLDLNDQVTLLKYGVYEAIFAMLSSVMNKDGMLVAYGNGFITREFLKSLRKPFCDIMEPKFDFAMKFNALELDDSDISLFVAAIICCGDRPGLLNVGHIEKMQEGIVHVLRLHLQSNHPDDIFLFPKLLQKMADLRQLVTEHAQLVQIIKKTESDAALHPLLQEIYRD
The assay can be described thus: GAL4-PPAR ligand binding domain luciferase reporter transactivation assay in transiently transfected U2-OS cells. The format is cell-based. The note with it: concentration giving 50% of the maximal activation obtained by the reference compound (ETYA), about 24 hours exposure. On the procedure:
(§1) Compounds were dissolved in DMSO to obtain 16 mM stock solutions. Before assays, stock solutions were further diluted in DMSO and culture media
(§2) U2-OS, (Osteogenic sarcoma, Human) was purchased from ATCC, USA. Cells were expanded and refrozen in batches from passage number six. Cells were cultured in Dulbecco's modified Eagle medium (DMEM) with 25 mM glucose, 2 mM glutamine or 4 mM L-alanyl-L-glutamine, 10% fetal calf serum, at 5% CO2. Phosphate buffered saline (PBS) without addition of calcium or magnesium was used. All cell culture reagents were from Gibco (USA) and 96-well cell culture plates were purchased from Wallach.
(§3) Standard recombinant DNA techniques were carried out as described by Ausubel (7). The Luciferase reporter vector, pGL5UAS (clone consists of five copies of the GAL4 DNA binding sequence, 5′-[…]-3′, cloned into the SacI/XhoI sites of pGL3-Promoter (Promega). The SacI/XhoI fragment carrying the UAS sites was constructed using annealed overlapping oligonucleotides.
(§4) Expression vectors used are based upon pSG5 (Stratagene). All vectors contain an EcoRI/NheI fragment encoding the DNA binding domain of GALA (encoding amino acid positions 1-145 of database accession number P04386) followed by an in-frame fusion to a fragment encoding the nuclear localisation sequence from T antigen of Polyoma Virus. […]

For a further assay, the target named is T2, mouse PPAR gamma (Mus musculus, UniProt P37238).
T2 construct: expressed in transfected cells; host or cells: U2-OS (human osteogenic sarcoma), transient transfection by electroporation with a pSG5-based expression vector
T2 sequence (P37238 238-503 limits assumed): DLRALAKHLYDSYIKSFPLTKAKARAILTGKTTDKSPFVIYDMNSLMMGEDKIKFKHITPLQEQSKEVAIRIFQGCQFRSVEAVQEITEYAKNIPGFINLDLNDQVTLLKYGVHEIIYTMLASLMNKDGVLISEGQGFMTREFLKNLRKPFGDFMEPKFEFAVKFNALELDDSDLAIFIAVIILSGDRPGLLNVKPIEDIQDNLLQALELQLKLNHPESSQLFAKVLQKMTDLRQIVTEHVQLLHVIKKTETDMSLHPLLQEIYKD
The assay is described as above. It is filed as cell-based. The note with it: concentration giving 50% of the maximal activation obtained by the reference compound (pioglitazone), about 24 hours exposure. On the procedure: as §1, §2, §3, §4

On to `O=C(Cc1ccc(OCc2ccccc2C(=O)O)cc1)NCc1ccc(C(F)(F)F)cc1` [Example 2, 2-{[4-(2-Oxo-2-{[4-(trifluoromethyl)benzyl]amino}ethyl)phenoxy]methyl}benzoic acid], for which the EC50 (in general, the concentration needed to bring the measured effect to its halfway point) at human PPAR alpha came out at 2.96 µM; on mouse PPAR gamma it was 3.05 µM.
